Test results taken from PubChem BioAssay AID463204 (Broad Institute, 2010).
Activity calls are given as the source filed them.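 How the source made its calls: active means AC50 no more than ten times the top concentration tested, that is within one log above it; inconclusive means flat curve fit with activity between 30% and 70%, or invalid poor fit; inactive means AC50 beyond ten times the top tested dose.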

Tested on: S. cerevisiae Mot1-301 ts growth rescue, BacTiter-Glo ATP luminescence
Test: restored Mot1-301 yeast growth at 38.5C – whole organism, S. cerevisiae, Mot1-301 ts mutant, luminescence, dose retest, SUMOylation pathway inhibitor project, confirmation (AID 463204);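 further: growth at restrictive 38.5 degrees C of Mot1-301 OY566 strain; actives raise luminescence by restoring growth of the ts mutant at high temperature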

Structure (SMILES)	AC50
Cc1ccc(NC(=O)Cn2nc(C)c3ccccc3c2=O)cc1	> 42 µM (inactive)
O=C(CCl)N(Cc1cc(=O)[nH]c2ccccc12)c1ccccc1	> 42 µM (inactive)
O=S1(=O)NC(c2ccccc2)CC(CC2CCCCC2)O1 (stereo not given)	38.7 µM
CC1(C)Cc2c(cnn2-c2ccc(F)cc2)C(NC(=O)CCCN2CCCCC2=O)C1 (stereo not given)	> 42 µM (inactive)
Cc1ccc(S(=O)(=O)NN2C(=O)c3ccccc3NC2c2ccccc2F)cc1 (stereo not given)	> 42 µM (inactive)
CC(=O)Nc1ccc(S(=O)(=O)Nc2cccc(-c3ccc4nncn4n3)c2)cc1	> 42 µM (inactive)
COc1ccc(-c2noc(CSc3nc(-c4ccccc4)cc(=O)[nH]3)n2)cc1OC	> 42 µM (inactive)
COc1cc(CNCc2ccc3c(c2)OCO3)c([N+](=O)[O-])cc1OC	> 42 µM (inactive)
Cc1ccc(N(CC(=O)NC2CCCC2)C(=O)CCC(=O)Nc2ccccn2)cc1C	> 42 µM (inactive)
CCCNCC(O)COc1ccccc1C(=O)CCc1ccccc1 (stereo not given)	> 42 µM (inactive)
CN(CCOc1ccc(-c2ccn(S(=O)(=O)c3cccc4ccccc34)n2)cc1)c1ccccn1	> 42 µM (inactive)
CN(CC(=O)Nc1ccccc1Sc1ccccc1)Cc1nc2ccccc2c(=O)[nH]1	> 42 µM (inactive)
CCn1c(SCC(=O)Nc2nc(-c3ccccc3)cs2)nnc1-c1ccccc1	> 42 µM (inactive)
Cc1ccc(NC(=O)Cn2c(CCC(=O)O)ccc2-c2cccs2)cc1	> 42 µM (inactive)
C=CC[N+]1(CC#Cc2ccccc2)CCCC1	> 42 µM (inactive)
CCCc1nn2c(=O)cc(CSCC(=O)Nc3ccc(OC)cc3)nc2s1	> 42 µM (inactive)
CCOc1cc(C(=S)N2CCOCC2)ccc1OC(=O)c1ccc(C)cc1	> 42 µM (inactive)
CC[n+]1c(/C=C/N(C)c2ccccc2)n(-c2ccccc2)c2ccc(-c3nc4ccccc4s3)cc21	19.6 µM
Cc1ccccc1-c1nnc(CN2CCC(C)CC2)o1	> 42 µM (inactive)
CCS(=O)(=O)N1CCCC(C(=O)NCc2cccnc2)C1 (stereo not given)	> 42 µM (inactive)
CCc1cc2c(NCCO)ncnc2s1	> 42 µM (inactive)
CCC(C)[C@H]1COCCS(=O)(=O)N1Cc1ccc(C)cc1 (stereo not given in full)	> 42 µM (inactive)
Cc1ccc(NC(=O)CCS(=O)(=O)c2ccc3nc(C)sc3c2)cc1	> 42 µM (inactive)
N#CCN(N=Nc1ccccc1)c1ccccc1	> 42 µM (inactive)
COc1ccc(N2CC(C(=O)N3CCc4ccccc43)CC2=O)cc1 (stereo not given)	> 42 µM (inactive)

Structure (SMILES)	AC50
CCOCCCNC(=O)C(c1ccc(OC)cc1)N(Cc1ccc2c(c1)OCO2)C(=O)CNC(C)=O (stereo not given)	> 42 µM (inactive)
COc1ccc(/C=C(\C#N)C(=O)NCCCn2ccnc2)cc1	> 42 µM (inactive)
CCN(CC)C1CCN(C(=O)c2cc(COc3ccc(-n4cncn4)cc3)on2)C1 (stereo not given)	> 42 µM (inactive)
N#Cc1c2ccc([N+](=O)[O-])cc2[n+]([O-])n1-c1ccccc1	2.9 µM
CC(NC(=O)CCc1nnc(-c2ccc(-c3ccccc3)cc2)o1)c1nc2ccccc2[nH]1 (stereo not given)	> 42 µM (inactive)
COc1ccc2cc3c(N)nn(C(=O)c4ccccc4Cl)c3nc2c1	> 42 µM (inactive)
C=C(C)C(=O)Nc1cccnc1Oc1ccc(F)cc1F	> 42 µM (inactive)
O=C(O)c1cccc(NC(=O)c2cccc(S(=O)(=O)Nc3cccc([N+](=O)[O-])c3)c2)c1	> 42 µM (inactive)
COc1ccccc1N1CCN(C(=O)c2sc3ncnc(N4CCN(c5ccccn5)CC4)c3c2C)CC1	> 42 µM (inactive)
O=C1N=C(N2CCN(c3ccccc3)CC2)SC1Cc1ccccc1 (stereo not given)	> 42 µM (inactive)
O=C(COC(=O)Cc1ccsc1)NC1CCCCCC1	> 42 µM (inactive)
O=C(c1cccnc1)N1CCCC(Nc2ccc(F)cc2)C1 (stereo not given)	> 42 µM (inactive)
COc1ccc(/C=C(/C#N)S(=O)(=O)c2ccc(C)cc2)cc1	> 21 µM (inactive)
COC(=O)c1c(C)n(Cc2ccc3c(c2)OCO3)c2ccc(O)cc12	> 42 µM (inactive)
Cc1ccc(-n2c(C)cc(/C=N/NC(=O)c3ccncc3)c2C)cc1C	> 42 µM (inactive)
COc1cc2c(=O)n(-c3ccc(C)cc3)c(=O)n(CC(=O)c3ccc4c(c3)OCO4)c2cc1OC	> 42 µM (inactive)
N#C/C(=N\Nc1cccc(F)c1)C(=N)N1CCCCCC1	> 42 µM (inactive)
CCN(C(=O)CCS(=O)(=O)c1ccc2c(c1)oc(=O)n2C)c1ccc(OC)cc1	> 42 µM (inactive)
O=C(CCNS(=O)(=O)c1cccc2nsnc12)NCCC1=CCCCC1	> 42 µM (inactive)
Nc1nc(-c2ccc(Cl)cc2)nc(-c2ccc(Cl)cc2)n1	> 42 µM (inactive)
CCOC(=O)C1ON2CCCCC2C1(O)C(F)(F)F (stereo not given)	> 42 µM (inactive)
COc1ccc(NC(=O)c2ccccc2NC(=O)NC2CCCCC2)cc1	> 42 µM (inactive)
COc1ccccc1C(=O)OCC(=O)NC(=O)NCc1ccccc1	> 42 µM (inactive)
COc1cc(C(c2c(C)[nH][nH]c2=O)c2c(C)[nH][nH]c2=O)cc(OC)c1OC	> 42 µM (inactive)
CN(C)/C(CN1CCCCC1)=C1\N=C(c2ccccc2)OC1=O	> 42 µM (inactive)

Structure (SMILES)	AC50
CS(=O)(=O)c1ccc(Cl)c(NC(=O)c2ccc3ccccc3c2)c1	> 42 µM (inactive)
NC(=O)CC(NC(=S)NCc1ccccc1)C(=O)O (stereo not given)	> 42 µM (inactive)
COc1ccc(N=C2SC(C(=O)O)CC(=O)N2Cc2ccc(OC)c(OC)c2)cc1 (stereo not given)	> 42 µM (inactive)
Cc1ccc(/C=C/C(=O)c2ccc([N+](=O)[O-])o2)cc1	3.5 µM
O=[N+]([O-])c1nn(-c2ccc(Cl)cc2)n(O)c1=NCc1ccccc1Cl	24 µM
CC(=O)Nc1ccc(/C(C)=N/NC(=O)c2ccncc2)cc1	> 42 µM (inactive)
Cc1cccc(OCc2nnc(SCC(=O)O)n2-c2ccccc2)c1	> 42 µM (inactive)
O=C(/C=C/NNC(=O)c1ccc(Br)cc1)c1ccccc1	> 42 µM (inactive)
Cn1nc(C(=O)NCCc2ccc(Cl)cc2)c2c1-c1ccccc1S(=O)(=O)C2	> 42 µM (inactive)
CCCC(=O)Oc1c(S(=O)(=O)c2ccc(C)cc2)c(C)nn1C(C)(C)C	> 42 µM (inactive)
Cc1ccc(-c2nnc(SCC#N)n2N)cc1	> 42 µM (inactive)
CC(C)(C)c1ccc(C(=O)NCCC(=O)N2CCN(c3ncccn3)CC2)cc1	> 42 µM (inactive)
O=c1nc2ccc(Cl)cn2c2ccc(S(=O)(=O)N3CCOCC3)cc12	> 42 µM (inactive)
CCC(C)[C@H](N)c1nnc(SCC(=O)Nc2cccc(Cl)c2)o1 (stereo not given in full)	> 42 µM (inactive)
NC(=O)c1cccc2cc3ccccc3cc12	> 42 µM (inactive)
O=C(CCC1CCCN(C(=O)Cc2cccc(F)c2)C1)N1CCN(c2ccccn2)CC1 (stereo not given)	> 42 µM (inactive)
Cc1nc(-c2cccc(S(=O)(=O)N3CCOCC3)c2)cs1	> 42 µM (inactive)
CC(C)C/C(=N/O)c1c[nH]c2ccccc12	> 42 µM (inactive)
CCCCn1c(N)c(N(CCOC)C(=O)c2cnccn2)c(=O)[nH]c1=O	> 42 µM (inactive)
COc1ccc2cc(C#N)c(Nc3cccc(F)c3)nc2c1	> 42 µM (inactive)
O=C1NC2(CCCCO2)CO1 (stereo not given)	> 42 µM (inactive)
CN1C(=O)/C(=C/c2ccc(OCc3ccccc3F)cc2)NC1=S	> 42 µM (inactive)
CC(=O)c1cccc(NC(=O)CNC(=O)c2sc3ccccc3c2Cl)c1	> 42 µM (inactive)
O=C(c1cc(F)ccc1F)C1CCCN(C(=O)c2ccc3nccnc3c2)C1 (stereo not given)	> 42 µM (inactive)
O=C(NC1CCCCC1)N(Cc1cc2cc3c(cc2[nH]c1=O)OCCO3)C1CCCCC1	> 42 µM (inactive)

Structure (SMILES)	AC50
O=C(O)CSc1ncnc2sc(-c3ccccc3)cc12	> 42 µM (inactive)
COc1ccc2c(c1)OC[C@H]1[C@H]2N2C(=O)c3cc(OC)c(OC)cc3NC(=O)[C@@]2(C)[C@H]1c1ccccc1	5.49 µM
CSCCc1nc(SCC(=O)Nc2nnc(C)s2)[nH]c1C	> 42 µM (inactive)
Cc1nnc(SCC(=O)NC(C)(C)C)n1NCc1ccc(Cl)cc1	> 42 µM (inactive)
CC1CCC(C(C)C)C(OC(=O)COC(=O)c2cccn2C)C1 (stereo not given)	> 42 µM (inactive)
O=C(CSCc1ccc(Cl)cc1)N1CCCCC1	> 42 µM (inactive)
CS(=O)(=O)N1CCC(Oc2ccccc2C(=O)N2CCNC(=O)C2)CC1	> 42 µM (inactive)
COCC(C)n1c(C)cc(C(=O)CSc2ccc(NC(C)=O)cc2)c1C (stereo not given)	> 42 µM (inactive)
Cc1ccccc1-n1c(-c2cccnc2)n[nH]c1=S	> 42 µM (inactive)
CCOC(=O)Cc1csc(NC(=O)NC2(C(F)(F)F)Oc3ccccc3O2)n1	> 42 µM (inactive)
CN(C)C(=O)CNC(=O)C1CCCCC1	> 42 µM (inactive)
CCOc1ccccc1NC(=O)c1ccc2c(c1)C(=O)N(CC(C)C)C2=O	> 42 µM (inactive)
CCC(C)NC(=O)CSc1nnc(-c2cc(-c3ccc(C)cc3)nc3ccccc23)n1N (stereo not given)	> 42 µM (inactive)
CC1(C)CC(=O)c2cnc(NC(=O)CSc3nc4ccccc4o3)nc2C1	> 42 µM (inactive)
CC1=NC2(CCCc3c2no[n+]3[O-])N(O)C1(C)C (stereo not given)	> 42 µM (inactive)
CN(C)C(=O)CSc1nc2ccc(N3C(=O)c4ccccc4C3=O)cc2s1	> 42 µM (inactive)
COCC(C)n1c(SCC(=O)NNC(=O)c2ccccc2)nc2ccccc2c1=O (stereo not given)	> 42 µM (inactive)
Cc1n[nH]c(=O)c2c(NC(=O)COC(=O)Cc3ccc(Cl)cc3Cl)oc(C)c12	> 21 µM (inactive)
O=[N+]([O-])c1ccc(N/N=C/c2cccc(O)c2)cc1	29.4 µM
Cc1c(Cl)c([N+](=O)[O-])nn1CC(=O)NC12CC3CC(CC(C3)C1)C2	> 42 µM (inactive)
Cc1cccc(OCCN2CSC(=S)N(C)C2)c1	3.7 µM
CCOC(=O)C1=C(C)NC(C)=C(C(=O)OCC)C1C(=O)OC1CCOC1=O (stereo not given)	> 42 µM (inactive)
CC1CCN(C(=O)Cn2cnc3c2c(=O)n(C)c(=O)n3C)c2ccccc2S1 (stereo not given)	7.66 µM
CCCNC(=O)c1cc2c(C(F)(F)F)nn(C)c2s1	> 42 µM (inactive)
CCOC(=O)c1ccc(NC(=O)c2c(NC(=O)CCC(=O)O)sc3c2CCCCC3)cc1	> 42 µM (inactive)
